In ChEMBL document CHEMBL5233262, “Anti-inflammatory activity of naturally occuring diarylheptanoids - A review” (Bioorg Med Chem, 2021):
Each block holds one compound with its values, some of them ahead of it.

Columns and labels:
RAW264.7 [1] = test: Antiinflammatory activity in mouse RAW264.7 cells assessed as inhibition of LPS-induced NO production incubated for 24 hrs by Griess reagent based analysis; assay type: functional, cell-based; conditions: RAW264.7, 24 h
RAW264.7 [2] = test: Antiinflammatory activity in mouse RAW264.7 cells assessed as inhibition of LPS-induced TNFalpha production preincubated for 1 hr followed by LPS stimulation and measured after 18 hrs by immunoassay; assay type: functional, cell-based
RAW264.7 [3] = test: Antiinflammatory activity in mouse RAW264.7 cells assessed as inhibition of LPS-induced NF-kappaB expression preincubated for 1 hr followed by LPS stimulation and measured after 18 hrs by qPCR analysis; assay type: functional, cell-based
RAW264.7 [4] = test: Antiinflammatory activity in mouse RAW264.7 cells assessed as inhibition of LPS-induced NF-kappaB activation incubated for 24 hrs by SEAP microplate reader analysis; assay type: functional, cell-based; conditions: RAW264.7, 24 h
RAW264.7 [5] = test: Antiinflammatory activity in mouse RAW264.7 cells assessed as inhibition of LPS-induced TNF-alpha production; assay type: functional, cell-based
RAW264.7 [6] = test: Antiinflammatory activity in mouse RAW264.7 cells assessed as inhibition of LPS-induced IL-6 production; assay type: functional, cell-based
Mus musculus [7] = test: Antiinflammatory activity in ICR mouse model of TPA-induced ear edema assessed as inhibition of ear inflammation at 1 mg,TOP for 30 mins followed by TPA addition and measured after 6 hrs; assay type: functional; conditions: time 390 min, 6.5 h
RAW264.7 [8] = test: Antiinflammatory activity in mouse RAW264.7 cells assessed as inhibition of LPS-induced IL-1beta production; assay type: functional, cell-based
Rattus norvegicus [9] = test: Antiinflammatory activity in rat model of ethyl phenylpropiolate-induced ear edema assessed as 30% reduction in ear thickness administered topically and measured after 30 mins; assay type: functional; conditions: 0.5 h
Rattus norvegicus [10] = test: Antiinflammatory activity in rat model of ethyl phenylpropiolate-induced ear edema assessed as 30% reduction in ear thickness administered topically and measured after 1 hr; assay type: functional
Rattus norvegicus [11] = test: Antiinflammatory activity in rat model of ethyl phenylpropiolate-induced ear edema assessed as reduction in ear thickness administered topically and measured after 1 hr; assay type: functional
Rattus norvegicus [12] = test: Antiinflammatory activity in rat model of ethyl phenylpropiolate-induced ear edema assessed as reduction in ear thickness administered topically and measured after 30 mins; assay type: functional; conditions: 0.5 h
RAW264.7 [13] = test: Antiinflammatory activity in mouse RAW264.7 cells assessed as inhibition of LPS-induced NO production incubated for 20 hrs by Griess reagent based microplate reader analysis; assay type: functional, cell-based; conditions: RAW264.7, 20 h
RAW264.7 [14] = test: Antiinflammatory activity in mouse RAW264.7 cells assessed as inhibition of LPS-induced NO production at 10 ug/ml incubated for 20 hrs by Griess reagent based microplate reader analysis; assay type: functional
[15] = Antioxidant activity assessed as nitroblue tetrazolium superoxide radical scavenging activity incubated for 10 mins by spectrophotometric analysis; assay type: functional
[16] = Antioxidant activity assessed as nitroblue tetrazolium superoxide radical scavenging activity by spectrophotometric analysis; assay type: functional
RAW264.7 [17] = test: Antiinflammatory activity in mouse RAW264.7 cells assessed as inhibition of LPS-induced NO production incubated for 20 hrs by Griess method; assay type: functional, cell-based; conditions: RAW264.7, 20 h
RAW264.7 [18] = test: Antiinflammatory activity in mouse RAW264.7 cells assessed as inhibition of LPS-induced NO production incubated for 24 hrs by Griess method; assay type: functional, cell-based; conditions: RAW264.7, 24 h
RAW264.7 [19] = test: Antiinflammatory activity in mouse RAW264.7 cells assessed as inhibition of LPS-induced NO production preincubated for 1 hrs followed by LPS stimulation and measured after 24 hrs by Griess reagent based analysis; assay type: functional, cell-based
RAW264.7 [20] = test: Antiinflammatory activity in mouse RAW264.7 cells assessed as inhibition of LPS-induced NO production incubated for 18 hrs by Griess method; assay type: functional, cell-based; conditions: RAW264.7, 18 h
[21] = Antioxidant activity assessed as DPPH radical scavenging activity incubated for 30 mins by spectrophotometric analysis; assay type: functional
U-937 [22] = test: Antiinflammatory activity in PMA-stimulated human U-937 cells assessed as inhibition of IL-1beta protein expression at 1 ug/ml by western blot analysis; assay type: functional
U-937 [23] = test: Antiinflammatory activity in PMA-stimulated human U-937 cells assessed as inhibition of IL-1beta secretion at 1 ug/ml by ELISA; assay type: functional
U-937 [24] = test: Antiinflammatory activity in PMA-stimulated human U-937 cells assessed as inhibition of TNFalpha secretion at 1 ug/ml by ELISA; assay type: functional
RAW264.7 [25] = test: Antiinflammatory activity in mouse RAW264.7 cells assessed as inhibition of LPS-induced NO production for 24 hrs by colorimetric analysis; assay type: functional, cell-based; conditions: RAW264.7, 24 h
RAW264.7 [26] = test: Antiinflammatory activity in mouse RAW264.7 cells assessed as inhibition of LPS-induced iNOS expression at 25 uM; assay type: functional
Mus musculus [27] = test: Antiinflammatory activity in TPA-induced ear edema ICR mouse model assessed as inhibition of ear inflammation at 1 ug, TOP for 30 mins followed by TPA addition and measured after 6 hrs; assay type: functional; conditions: dose 1 µg, time 390 min, 6.5 h
Rattus norvegicus [28] = test: Antiinflammatory activity in Wistar rat model of carrageenan-induced paw edema assessed as reduction in paw thickness at 10 mg/kg,po and measured after 5 hrs; assay type: functional; parameters: scale not given: the % may be the effect or the level left
RAW264.7 [29] = test: Antiinflammatory activity in mouse RAW264.7 cells assessed as inhibition of KLA-induced TNFalpha expression at 0.06 mg/ml and measured after 24 hrs by ELISA; assay type: functional
RAW264.7 [30] = test: Antiinflammatory activity in mouse RAW264.7 cells assessed as inhibition of LPS-induced NO production at 30 uM preincubated for 0.5 hrs followed by LPS stimulation and measured after 24 hrs by Griess reagent based analysis; assay type: functional; conditions: time 24.5 hrs
J774.A1 = test: Antiinflammatory activity in mouse J774.A1 cells assessed as inhibition of LPS-induced NO production incubated for 24 hrs by Griess reagent based analysis; assay type: functional, cell-based; conditions: J774.A1, 24 h

- IC50 (RAW264.7 [1]): 18.5 µM
- IC50 (RAW264.7 [2]): 22.9 µM
- IC50 (RAW264.7 [3]): 9.2 µM
SMILES: COc1c2ccc(c1O)CCCCC(=O)CCc1ccc(O)c(c1)O2

- IC50 (RAW264.7 [4]): 3.4 µM
- IC50 (RAW264.7 [1]): 2.4 µM
- IC50 (RAW264.7 [2]): 2.6 µM
- IC50 (RAW264.7 [3]): 3.4 µM
SMILES: C=C1C(=O)O[C@@H]2[C@H]3O[C@]3(C)CC/C=C(\C)CC[C@@H]12

SMILES: O=c1c(O)c(-c2ccc(O)c(O)c2)oc2cc(O)cc(O)c12 [QUERCETIN]
- IC50 (RAW264.7 [5]): 13.6 µM
- IC50 (RAW264.7 [6]): 16.8 µM
- ID50 (Mus musculus [7]): 1.6 mg
- IC50 (RAW264.7 [8]): 16.9 µM

SMILES: CCCCC1C(=O)N(c2ccccc2)N(c2ccc(O)cc2)C1=O (configuration not stated) [OXYPHENBUTAZONE ANHYDROUS]
- ID30 (Rattus norvegicus [9]): 0.2 µg
- ID30 (Rattus norvegicus [10]): 0.3 µg
- ID50 (Rattus norvegicus [11]): 46 µg
- ID50 (Rattus norvegicus [12]): 12 µg

- IC50 (RAW264.7 [13]): > 30 µM
SMILES: COc1cc(CCC(O)CC(O)CCc2ccccc2)ccc1O (configuration not stated)
- inhibition at 10 µg/mL (RAW264.7 [14]): 27%

- IC50 [15]: 12.7 µM
- IC50 [16]: 30.1 µM
- IC50 (RAW264.7 [17]): 2.6 µM
- IC50 (RAW264.7 [18]): 22.7 µM
- IC50 (RAW264.7 [19]): 6.6 µM
- IC50 (RAW264.7 [20]): 16.8 µM
- IC50 [21]: 20.1 µM
SMILES: O=C(CCCCc1ccc(O)c(O)c1)CCc1ccc(O)c(O)c1

- IC50 (RAW264.7 [1]): 18.2 µM
- IC50 (RAW264.7 [2]): 22.3 µM
- IC50 (RAW264.7 [3]): 9.4 µM
SMILES: COc1ccc2cc1Oc1ccc(c(O)c1OC)CCCC[C@H](O)CC2

SMILES: Oc1ccc(CCC(O)CC/C=C/c2ccccc2)cc1 (configuration not stated)
- inhibition at 1 µg/mL (U-937 [22]): 58%
- inhibition at 1 µg/mL (U-937 [23]): 20%
- inhibition at 1 µg/mL (U-937 [24]): 19%

- IC50 (RAW264.7 [25]): 0.66 µM
SMILES: Oc1ccc(CCC(O)/C=C/C=C/c2ccccc2)cc1 (configuration not stated)

- IC50 (RAW264.7 [5]): 20.1 µM
- IC50 (RAW264.7 [6]): 22.7 µM
- IC50 (RAW264.7 [8]): 22.9 µM
SMILES: COc1cc2cc(c1O)-c1cc(ccc1O)CC[C@H](OS(=O)(=O)O)CCCC2

- IC50 (RAW264.7 [13]): 6.8 µM
SMILES: O=C(/C=C/CCc1ccccc1)CCc1ccccc1
- inhibition at 25 µM (RAW264.7 [26]): 71%
- ID50 (Mus musculus [27]): 2.7 µmol
- Activity (Rattus norvegicus [28]): 4.7%
- inhibition at 60 µg/mL (RAW264.7 [29]): 38%

- IC50 (J774.A1): 100 µM
SMILES: OC[C@H]1O[C@@H](O[C@H](CCCCc2ccc(O)cc2)CCc2ccc(O)cc2)[C@H](O)[C@@H](O)[C@@H]1O
- ID50 (Mus musculus [7]): 0.66 mg
- inhibition at 30 µM (RAW264.7 [30]): 24%
